Test results: PubChem BioAssay (NCI)
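Growth conditions: 96-well plates. Treatment: test compound, 48 hours, 5 concentrations. Analysis: linear interpolation between bracketing concentrations; unreached endpoints set to highest concentration. GI50 = concentration required for 50% inhibition of growth. TGI is the concentration that stops growth completely.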

Experiments:
Experiment in all cases: DTP human tumour cell line panel, 48 h; in the data active means GI50 below about 0.43 µM; inactive means the rest
UO-31 renal = test system: UO-31 renal
MOLT-4 leukemia = test system: MOLT-4 leukemia
NCI-H23 lung = test system: NCI-H23 lung
HOP-92 NSCLC = test system: HOP-92 NSCLC
LOX IMVI melanoma = test system: LOX IMVI melanoma
HS 578T breast = test system: HS 578T breast
SW-620 colon = test system: SW-620 colon
U251 CNS = test system: U251 CNS
KM12 colon = test system: KM12 colon
OVCAR-3 ovarian = test system: OVCAR-3 ovarian
OVCAR-8 ovarian = test system: OVCAR-8 ovarian
SN12C renal = test system: SN12C renal
A549 NSCLC = test system: A549 NSCLC
SF-539 CNS = test system: SF-539 CNS
TK-10 renal = test system: TK-10 renal
SK-MEL-2 melanoma = test system: SK-MEL-2 melanoma
RPMI-8226 leukemia = test system: RPMI-8226 leukemia
RXF 393 renal = test system: RXF 393 renal
COLO 205 colon = test system: COLO 205 colon
SK-MEL-5 melanoma = test system: SK-MEL-5 melanoma
NCI-H226 lung = test system: NCI-H226 lung
SR leukemia = test system: SR leukemia
NCI-H460 lung = test system: NCI-H460 lung
DU-145 prostate = test system: DU-145 prostate
ACHN renal = test system: ACHN renal
IGROV1 ovarian = test system: IGROV1 ovarian
OVCAR-5 ovarian = test system: OVCAR-5 ovarian
SNB-19 CNS = test system: SNB-19 CNS
HT29 colon = test system: HT29 colon
HL-60(TB) leukemia = test system: HL-60(TB) leukemia
MDA-MB-231 breast = test system: MDA-MB-231 breast
K-562 leukemia = test system: K-562 leukemia
BT-549 breast = test system: BT-549 breast
HCT-15 colon = test system: HCT-15 colon
NCI-H522 lung = test system: NCI-H522 lung
SF-295 CNS = test system: SF-295 CNS
MCF7 breast = test system: MCF7 breast
SK-MEL-28 melanoma = test system: SK-MEL-28 melanoma
CAKI-1 renal = test system: CAKI-1 renal
NCI/ADR-RES ovarian = test system: NCI/ADR-RES ovarian
UACC-62 melanoma = test system: UACC-62 melanoma
SF-268 CNS = test system: SF-268 CNS
HCC-2998 colon = test system: HCC-2998 colon
786-0 renal = test system: 786-0 renal
SK-OV-3 ovarian = test system: SK-OV-3 ovarian
CCRF-CEM leukemia = test system: CCRF-CEM leukemia
OVCAR-4 ovarian = test system: OVCAR-4 ovarian
T-47D breast = test system: T-47D breast
EKVX NSCLC = test system: EKVX NSCLC
A498 renal = test system: A498 renal
UACC-257 melanoma = test system: UACC-257 melanoma
SNB-75 CNS = test system: SNB-75 CNS
MDA-MB-435 = test system: MDA-MB-435
MALME-3M melanoma = test system: MALME-3M melanoma

CC(=O)N(Cc1ccccc1)c1ccccc1I(=O)=O
active: GI50 (SR leukemia) 180 nM
58.5 µM: TGI (NCI-H460 lung)
35.5 µM: TGI (CCRF-CEM leukemia)
35.6 µM: TGI (LOX IMVI melanoma)
48.9 µM: TGI (SF-268 CNS)
91.9 µM: TGI (SW-620 colon)
50.8 µM: TGI (HL-60(TB) leukemia)
inactive: GI50 (UO-31 renal) 38 µM | GI50 (MOLT-4 leukemia) 12.7 µM | GI50 (NCI-H23 lung) 37.8 µM | GI50 (HOP-92 NSCLC) 13.3 µM | GI50 (LOX IMVI melanoma) 17.5 µM | GI50 (HS 578T breast) > 100 µM | GI50 (SW-620 colon) 29.4 µM | GI50 (U251 CNS) 34.5 µM | GI50 (KM12 colon) 42 µM | GI50 (OVCAR-3 ovarian) 33.9 µM | GI50 (OVCAR-8 ovarian) 48.3 µM | GI50 (SN12C renal) > 100 µM | GI50 (A549 NSCLC) 55.6 µM | GI50 (SF-539 CNS) > 100 µM | GI50 (TK-10 renal) 45.2 µM | GI50 (SK-MEL-2 melanoma) 63.6 µM | GI50 (RPMI-8226 leukemia) 15.7 µM | GI50 (RXF 393 renal) > 100 µM | GI50 (COLO 205 colon) 28.9 µM | GI50 (SK-MEL-5 melanoma) 33.6 µM | GI50 (NCI-H226 lung) > 100 µM | GI50 (NCI-H460 lung) 22.8 µM | GI50 (DU-145 prostate) 29.6 µM | GI50 (ACHN renal) 36 µM | GI50 (IGROV1 ovarian) 15.5 µM | GI50 (OVCAR-5 ovarian) > 100 µM | GI50 (SNB-19 CNS) 82.2 µM | GI50 (HT29 colon) 27.8 µM | GI50 (HL-60(TB) leukemia) 14.9 µM | GI50 (MDA-MB-231 breast) 50.4 µM | GI50 (K-562 leukemia) 14 µM | GI50 (BT-549 breast) > 100 µM | GI50 (HCT-15 colon) 19.8 µM | GI50 (NCI-H522 lung) 22.4 µM | GI50 (SF-295 CNS) 48.3 µM | GI50 (MCF7 breast) 16.5 µM | GI50 (SK-MEL-28 melanoma) 34.5 µM | GI50 (CAKI-1 renal) 42.2 µM | GI50 (NCI/ADR-RES ovarian) 37.8 µM | GI50 (UACC-62 melanoma) > 100 µM | GI50 (SF-268 CNS) 16.2 µM | GI50 (HCC-2998 colon) 99.3 µM | GI50 (786-0 renal) 57.8 µM | GI50 (SK-OV-3 ovarian) 81.1 µM | GI50 (CCRF-CEM leukemia) 16.6 µM | GI50 (OVCAR-4 ovarian) 65.4 µM | GI50 (T-47D breast) 36.1 µM | GI50 (EKVX NSCLC) 88.5 µM | GI50 (A498 renal) 49.7 µM | GI50 (UACC-257 melanoma) > 100 µM | GI50 (SNB-75 CNS) 50.9 µM | GI50 (MDA-MB-435) 49.9 µM | GI50 (MALME-3M melanoma) 19.3 µM
67.5 µM: TGI (HOP-92 NSCLC)
4.37 µM: TGI (SR leukemia)
40.5 µM: TGI (HCT-15 colon) | TGI (MCF7 breast)
32.7 µM: TGI (RPMI-8226 leukemia)
29.5 µM: TGI (K-562 leukemia)
> 100 µM: TGI (UO-31 renal) | TGI (NCI-H23 lung) | TGI (HS 578T breast) | TGI (U251 CNS) | TGI (KM12 colon) | TGI (OVCAR-3 ovarian) | TGI (OVCAR-8 ovarian) | TGI (SN12C renal) | TGI (A549 NSCLC) | TGI (SF-539 CNS) | TGI (TK-10 renal) | TGI (SK-MEL-2 melanoma) | TGI (RXF 393 renal) | TGI (SK-MEL-5 melanoma) | TGI (NCI-H226 lung) | TGI (DU-145 prostate) | TGI (ACHN renal) | TGI (IGROV1 ovarian) | TGI (OVCAR-5 ovarian) | TGI (SNB-19 CNS) | TGI (HT29 colon) | TGI (MDA-MB-231 breast) | TGI (BT-549 breast) | TGI (NCI-H522 lung) | TGI (SF-295 CNS) | TGI (SK-MEL-28 melanoma) | TGI (CAKI-1 renal) | TGI (NCI/ADR-RES ovarian) | TGI (UACC-62 melanoma) | TGI (HCC-2998 colon) | TGI (786-0 renal) | TGI (SK-OV-3 ovarian) | TGI (OVCAR-4 ovarian) | TGI (T-47D breast) | TGI (EKVX NSCLC) | TGI (A498 renal) | TGI (UACC-257 melanoma) | TGI (SNB-75 CNS) | TGI (MDA-MB-435) | TGI (MALME-3M melanoma)
42.9 µM: TGI (MOLT-4 leukemia)
90.4 µM: TGI (COLO 205 colon)
